What was measured:
[1] = tested on: Holstein Friesian cows challenged with S. aureus; assay: Clinical and productive variables in cows challenged with S. aureus (induced mastitis); format: in vivo
S. aureus = assay: Bacteriological analysis (CFU) in milk of cows challenged with S. aureus; format: in vivo, Staphylococcus aureus
Experimental: 1 mL of PBS was inoculated into the right quarters as a control. The NEG group (without therapy) was treated on days 4 and 10 with a 5 mL Ringer Lactate solution via the teat canal in the two infected quarters. The ATB group (antibiotic therapy) was treated with a commercial suspension of 50 mg of pirlimycin on experimental days 4 and 5 via the teat canal in the two infected quarters. The MSC group (MSC therapy) was administered with a 2.5×10^7 suspension of MSC in 3 ml of Lactated Ringer via the teat canal in the two infected quarters. From the day of the challenge and daily during 15 days, the cows were clinically evaluated and milk samples were collected daily to determine SCC and CFU (FIG. 2B). The clinical evaluation and the collection of milk samples were carried out as detailed below.
Milk samples prior to milking were collected aseptically from all cows following the protocols of the International Dairy Federation (1985) on three consecutive days prior to the experimental challenge (FIG. 2B). Briefly, before milking, the quarters and teats were cleaned using a brush or washed with water in case of excessive presence of mud or manure. Then the teats and especially the tips of the teats were disinfected using paper towels with 70% alcohol. Three or four milk streams were discarded to reduce the possibility of contamination with pathogens present in the teat canal. Each of the teats, starting with the most distant ones, were disinfected again using a 70% alcohol swab. Previously labelled sample bottles were positioned at a 45-degree angle below the nipple without touching it to prevent contamination. Nearby teats were first sampled and then distant teats, filling one third of the vial. The samples were refrigerated or frozen for analysis of SCC or CFU, respectively. Only cows with three negative consecutive cultures were used in the study. […]
From the day of the challenge and daily for 15 days, milk samples were collected for determination of CFU. The CFU values were subsequently expressed as a linear score (LS-CFU) by means of logarithmic transformation (LS=LOGN). […]

CC[C@@H]1CCN[C@H](C(=O)N[C@@H]([C@H]2O[C@H](SC)[C@H](O)[C@@H](O)[C@H]2O)[C@H](C)Cl)C1 [ATB, pirlimycin]
average daily milk production [1]: 16.7±0.8 I
decrease in milk production between days 5 and 7 [1]: 2.1
Milk yield reduction days 5-7 (Its.) ([1]; days 5-7): 2.1 Its.
Milk yield (Its.) ([1]; n=5 each group, mean ± SD): 16.7 ± 0.8 Its.
Rectal temperature (° C.) ([1]; n=5 each group, mean ± SD): 38.1 ± 0.3 °C
Respiratory rate (bpm) ([1]; n=5 each group, mean ± SD): 28.6 ± 2.5 bpm
Ruminal frequency (in 2 min) ([1]; n=5 each group, mean ± SD): 2.6 ± 0.3
Termography BL (° C.) ([1]; n=5 each group, mean ± SD): 34.3 ± 0.6 °C
Termography BR (° C.) ([1]; n=5 each group, mean ± SD): 34.2 ± 0.5 °C
Termography FL (° C.) ([1]; n=5 each group, mean ± SD): 33.8 ± 0.7 °C
Termography FR(° C.) ([1]; n=5 each group, mean ± SD): 33.7 ± 0.7 °C
LS-CFU (linear score of CFU in milk) (S. aureus; day 3 post-challenge (before treatment on day 4)): −0.7
LS-CFU (linear score of CFU in milk) (S. aureus; day 8 post-challenge): −0.7
LS-CFU (linear score of CFU in milk) (S. aureus; day 9 post-challenge): −0.7

Reference: patent US20220016174A1, “FOETAL MESENCHYMAL STEM CELL COMPOSITION OF ALLOGENIC ORGIN, TREATMENT METHOD AND USE THEREOF IN MASTITIS IN MILK-PRODUCING ANIMALS, INCLUDING CATTLE” (UNIVERSIDAD DE CHILE, priority 2018, published 2022)
